Literature values as cited in US8372434B2, “Ophthalmic oil-in-water type emulsion with stable positive zeta potential” (Novagali Pharma SA, priority 2004, dated 2013).

Details: at 0.1% or 0.3% w/v

| Structure (SMILES) | safety for ocular administration |
| --- | --- |
| CCCCCCCC/C=C\CCCCCCCCN [oleylamine] | safe for ocular administration |
| CCCCCCCCCCCCCCCCCCN [stearylamine] | safe for ocular administration |
